Earlier results, collected in publication PMC8198792, “Prediction of Anticancer Peptides with High Efficacy and Low Toxicity by Hybrid Model Based on 3D Structure of Peptides” (International Journal of Molecular Sciences, 2021).
Like-named read-outs stand apart in the source and are kept apart here.

Test system: cancer cell lines
Parameters: method as in 6 sources, ref CancerPPD [45] and SATPdb ||| ref CancerPPD/SATPdb ||| ref CancerPPD, SATPdb, Swissprot (PDB) ||| ref CancerPPD/SATPdb/Swissprot(PDB) ||| ref CancerPPD / SATPdb ||| ...
Conditions: cited from earlier work
From the text: Supplement ijms-22-05630-s001.zip/ACPs(seguence).xlsx, sheet "D1" | column: Activity || Supplement ijms-22-05630-s001.zip/ACPs(seguence).xlsx, sheet "D2" | column: Activity || Supplement ijms-22-05630-s001.zip/ACPs(seguence).xlsx, sheet "D3" | column: Activity || (+ 2 further places)

[1] = ACPs dataset D1, 1 = ACP (positive), 0 = non-ACP (negative), label taken from databases, ref CancerPPD [45] and SATPdb
[2] = ACPs dataset D4 (sheet "D4"), label 1 = ACP, experimentally validated ACPs, ref CancerPPD [45] and SATPdb
[3] = ACPs dataset D5 (sheet "D5"), label 1 = ACP (positive set), sequences with CancerPPD/SATPdb ID, ref CancerPPD, SATPdb
[4] = ACPs dataset sheet D2, 1 = ACP (CancerPPD/SATPdb ID), 0 = non-ACP (Swissprot/PDB ID), ref CancerPPD, SATPdb, Swissprot (PDB)
[5] = ACPs dataset D2 (supplement ACPs(seguence).xlsx, sheet D2), dataset label 1/0 (ACP / non-ACP), entries identified by Swissprot(PDB ID), ref CancerPPD/SATPdb/Swissprot(PDB)
[6] = ACPs dataset D5 (sheet "D5"), label 1 = ACP (positive set), 0 = non-ACP (negative set), ref CancerPPD [45] and SATPdb
[7] = ACPs dataset D3 (supplement sheet "D3"), 1 = ACP, 0 = non-ACP, ref CancerPPD [45] and SATPdb
[8] = ACPs dataset D4 (sheet "D4"), label 1 = ACP (CancerPPD ID), 0 = non-ACP (non-anticancer AMP, SATPdb ID), ref CancerPPD [45] and SATPdb
[9] = ACPs dataset D5, sheet "D5", label 1 = ACP, 0 = non-ACP, ref CancerPPD [45] and SATPdb
[10] = ACPs dataset D1, label 1 = ACP, 0 = non-ACP (non-anticancer AMPs from SATPdb), ref CancerPPD/SATPdb
[11] = ACPs dataset D4 (sheet "D4"), label 1 = ACP, 0 = non-ACP, ref CancerPPD / SATPdb
[12] = ACPs dataset D3 (sheet "D3"), label 1 = ACP, 0 = non-ACP, ref CancerPPD/SATPdb

Substance	Activity [1]	Activity [2]	Activity [3]	Activity [4]	Activity [6]	also measured
GLMDTIKGVAKTVAASWLDKLKCKITGC [compound 4362]	1	1	1	1	–	–
DDTPSSRCGSGGWGPCLPIVDLLCIVHVTVGCSGGFGCCRIG [2JR3 NMR - A 1-42]	–	–	–	–	0	Activity [5]: 0
GFGMALKLLKKVL [compound 3586]	–	–	–	–	1	Activity [7]: 1; Activity [8]: 1
GLLKRIKTLL [2MJQ NMR - A 1-10]	–	–	–	0	0	–
MELVKVVFMGWFKNESMFTKEITMMKDDVQWATTQYAEVNKALVKAFIDDKKVCEVDCRG [5HY3 X-ray 3.10,B,1-60]	–	–	–	–	–	Activity [5]: 0; Activity [9]: 0
FLPIIAGAAAKVVEKIFCAISKKC [compound 4357]	1	1	1	1	–	–
KWKLFKKIGPGKFLHSAKKF [compound 1186]	–	–	–	–	1	Activity [7]: 1; Activity [8]: 1
GSEGPLKPGARIFSFDGKDVLRHPT [compound 4204]	1	1	1	1	–	–
INEFLERSGIPRQRNQ [satpdb14958]	1	1	1	1	–	–
GKWKKILGHLIR [compound 3645]	–	–	–	–	1	Activity [7]: 1; Activity [8]: 1
HTHQDFQPVLHLVALNTPLSGGMRGIR [satpdb17795]	1	1	1	1	–	–
RDCTSQSHKFVGLCLSDRNCASVCLTEYFTGGKCDHRRCVCTKGC [satpdb13162]	–	–	–	–	–	Activity [10]: 0; Activity [11]: 0
YNRLCIKPRDWIDECDSNEGGERAYFRNGKGGCDSFWICPEDHTGADYYSSYRDCFNACI [1D0D X-ray 1.62,A,1-60]	–	–	–	–	–	Activity [5]: 0; Activity [9]: 0
GLKEIFKAGLGSLVKGIAAHVAS [satpdb14561]	–	–	–	–	–	Activity [11]: 0; Activity [9]: 0
GKWMSLLKHWLK [compound 3656]	–	–	–	–	1	Activity [7]: 1; Activity [8]: 1
SPWSPCSGNCSTGKQQRTR [satpdb11308]	1	1	1	1	–	–
FLPAIVGAAAKFLPKIFCAISKKC [compound 4356]	1	1	1	1	–	–
MERSTRELCLNFTVVLITVILIWLLVRSYQY [3W5A X-ray 3.01 C 1-31]	–	–	–	0	0	–
GRVPYPRGGLLkLLKklLKKLlKL [compound 3587]	–	–	–	–	1	Activity [7]: 1; Activity [8]: 1
DKLIGSCVWGAVNYTSDCNGECKRRGYKGGHCGSFANVNCWCET [1I2U NMR - A 1-44]	–	–	–	–	0	Activity [5]: 0

Substance	Activity [1]	Activity [2]	Activity [3]	Activity [4]	Activity [6]	also measured
TNYGNGVGVPDAIMAGIIKLIFIFNIRQGYNFGKKAT [satpdb11292]	0	–	–	–	–	Activity [8]: 0
MDKVQYLTRSAIRRASTIEMPQQARQNLQNLFINFCLILICLLLICIIVMLL [4KYT X-ray 2.83 B/C 1-52]	–	–	–	–	–	Activity [5]: 0; Activity [9]: 0
rrrrrrrrGEDIIRNIARHAAQVGASMDR [compound 4239]	–	–	–	–	1	Activity [7]: 1; Activity [8]: 1
NGKQVCLDPEAPFLKKVIQKILDS [satpdb17154]	1	1	1	1	–	–
GLPTCGETCTLGTCYVPDCSCSWPICMKN [compound 4381]	1	1	1	1	–	–
KWKLFKKIGIGKFKLAKKF [compound 1206]	–	–	–	–	1	Activity [7]: 1; Activity [8]: 1
KWKSFlKTFKSlKKTVLHTLLKAISS [compound 3770]	–	–	–	–	1	Activity [7]: 1; Activity [8]: 1
GIPCGESCVYIPCLTSAIGCSCKSKVCYRN [satpdb13250]	–	–	–	–	–	Activity [10]: 0; Activity [11]: 0
KCGHKHQCAVHN [satpdb17767]	1	1	1	1	–	–
GKIPVKAIKKAGAAIGKGLRAINIASTAHDVYSFFKPKHKKK [satpdb13363]	–	–	–	–	–	Activity [10]: 0; Activity [11]: 0
GMWSKILGHLIK [compound 3636]	–	–	–	–	1	Activity [7]: 1; Activity [8]: 1
FLWWLFKWAWK [compound 1728]	1	1	1	1	–	Activity [7]: 1
SSSGWLCTLTIECGTIICACR [satpdb10412]	0	–	–	–	–	Activity [8]: 0
KWKLFKKIPKFLHLAKK [compound 1119]	–	–	–	–	1	Activity [7]: 1; Activity [8]: 1
TEWSVCNSRCGRGYQKRTR [satpdb19902]	1	1	1	1	–	–
KAYSTPRCKYLFRAVLCWL [satpdb14444]	–	–	–	–	–	Activity [12]: 0; Activity [11]: 0; Activity [9]: 0
GTWDDIGQGIGRVAYWVGKAMGNMSDVNQASRINRKKKH [2JPJ NMR - A 1-39]	–	–	–	–	0	Activity [5]: 0
YITCLFRGARCRVYSGRSCCFGYYCRRDFPGSIFGTCSRRNF [2DCW NMR - A 1-42]	–	–	–	–	0	Activity [5]: 0
FKLFKKIPKFLHLAKKF [compound 1124]	–	1	1	–	–	Activity [7]: 1
FLPVVAGLAAKVLPSIICAVTKKC [satpdb12902]	–	–	–	–	–	Activity [10]: 0; Activity [11]: 0

Substance	Activity [1]	Activity [2]	Activity [3]	Activity [4]	Activity [6]	also measured
QRACPRILKKCRRDSDCPGECICKENGYCG [2LJS NMR - A 1-30]	–	–	–	0	0	–
GLFDIVKKVVGTLAGL [compound 4409]	1	1	1	1	–	–
ERRCPRILKQCKRDSDCPGECICMAHGFCG [1EWU model - I 1-30]	–	–	–	0	0	–
ASFPWSCPSLSGVCRKVCLPTELFFGPLGCGKGFLCGVSHFL [satpdb13301]	–	–	–	–	–	Activity [10]: 0; Activity [11]: 0
GSSFLSPEHQLAQQRKESKKPPAKLQPR [satpdb13082]	–	–	–	–	–	Activity [10]: 0; Activity [11]: 0
ILPILSLIGGLLGK [compound 4439]	1	1	1	1	–	–
PRAWEYWLRLME [compound 4582]	1	1	1	1	–	–
MVEPLLSGIVLGLIVVTLAGLFYAAYKQYKRPNELGG [4OGQ X-ray 2.50,G,1-37]	–	–	–	–	0	Activity [5]: 0
QEPHRHSIFTPQTNPRADLEKN [satpdb11381]	1	1	1	1	–	–
GLPVCGETCTLGTCYTQGCTCSWPICKRN [satpdb13318]	–	–	–	–	–	Activity [10]: 0; Activity [11]: 0
GLFAVIKKVAAVIKKL [compound 4120]	–	–	–	–	1	Activity [7]: 1; Activity [8]: 1
GDVIDTDRDIDR [satpdb14246]	1	1	1	1	–	–
KWKSFAKTFKSAKKTVAHTALKAISS [compound 1445]	1	1	1	1	–	–
GRRKRKWLRRIGKGVKIIGGAALDHL [compound 4351]	–	–	–	–	1	Activity [7]: 1; Activity [8]: 1
MASRAARLAARLARLALRAL [satpdb10584]	0	–	–	–	–	Activity [8]: 0
AKLkAyPLKAKLyP [satpdb12877]	–	–	–	–	–	Activity [12]: 0; Activity [11]: 0; Activity [9]: 0
APRLPQCQGDDQEKCLCNKDECPPGQCRFPRGDADPYCE [1DEC NMR - A 1-39]	–	–	–	–	0	Activity [5]: 0
GLWSKIKEAAKAAGKAALNAVTGLVNQGDQPS [compound 4452]	1	1	1	1	–	–
